Each structure is given as a SMILES string.

Experimental findings from paper PMC3160198 (The Journal of neuroscience : the official journal of the …, 2011) are described below.

Assay [1] deals with homomeric ρ1 GABAC receptor (GABAρ1) (Homo sapiens, UniProt P24046). Put plainly: two-electrode voltage clamp in Xenopus oocytes, potentiation of GABA current. In kind it is cell-based. The following applies: 3000 µM, GABA 0.3 μM, pH 7.0, -70 mV. A general note: Two-electrode voltage clamp holds a large cell at a set potential and records current.
Sequence of homomeric ρ1 GABAC receptor (GABAρ1) (P24046 22-479): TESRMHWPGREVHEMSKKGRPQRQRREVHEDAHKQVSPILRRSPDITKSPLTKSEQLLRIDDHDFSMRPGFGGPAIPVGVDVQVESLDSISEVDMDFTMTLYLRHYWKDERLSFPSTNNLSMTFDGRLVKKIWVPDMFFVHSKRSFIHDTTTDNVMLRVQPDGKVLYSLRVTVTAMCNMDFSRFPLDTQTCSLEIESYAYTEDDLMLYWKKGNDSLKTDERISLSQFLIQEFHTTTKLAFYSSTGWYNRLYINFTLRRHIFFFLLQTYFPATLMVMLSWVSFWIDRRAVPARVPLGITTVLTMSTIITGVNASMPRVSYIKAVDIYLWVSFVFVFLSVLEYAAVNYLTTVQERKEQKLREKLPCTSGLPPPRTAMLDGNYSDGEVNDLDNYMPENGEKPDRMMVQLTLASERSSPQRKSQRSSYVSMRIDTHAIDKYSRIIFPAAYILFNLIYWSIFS
The target of another assay is α1β2 GABAA receptor (Rattus norvegicus, UniProt P62813+P63138). Put plainly: whole-cell patch clamp in HEK […] cells, potentiation of GABA current. The format is cell-based. The settings on record: GABA 1 μM (EC50); pH 7.4; -60 mV; positive modulator. For orientation: Patch clamp records ionic current or voltage across a cell membrane.
Sequence of α1β2 GABAA receptor (P62813 28-455): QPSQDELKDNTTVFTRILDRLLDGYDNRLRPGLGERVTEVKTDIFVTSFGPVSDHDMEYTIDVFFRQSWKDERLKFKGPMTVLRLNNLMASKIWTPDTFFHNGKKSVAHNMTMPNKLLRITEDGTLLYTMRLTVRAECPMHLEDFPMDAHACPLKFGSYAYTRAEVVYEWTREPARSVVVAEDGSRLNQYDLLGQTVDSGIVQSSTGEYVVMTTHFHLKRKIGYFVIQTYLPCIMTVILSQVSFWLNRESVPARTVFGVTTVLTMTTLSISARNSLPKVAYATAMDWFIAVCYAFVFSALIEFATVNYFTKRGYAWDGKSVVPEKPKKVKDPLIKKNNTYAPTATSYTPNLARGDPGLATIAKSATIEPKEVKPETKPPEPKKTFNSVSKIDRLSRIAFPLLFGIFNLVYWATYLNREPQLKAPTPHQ
Sequence of α1β2 GABAA receptor (P63138 26-474): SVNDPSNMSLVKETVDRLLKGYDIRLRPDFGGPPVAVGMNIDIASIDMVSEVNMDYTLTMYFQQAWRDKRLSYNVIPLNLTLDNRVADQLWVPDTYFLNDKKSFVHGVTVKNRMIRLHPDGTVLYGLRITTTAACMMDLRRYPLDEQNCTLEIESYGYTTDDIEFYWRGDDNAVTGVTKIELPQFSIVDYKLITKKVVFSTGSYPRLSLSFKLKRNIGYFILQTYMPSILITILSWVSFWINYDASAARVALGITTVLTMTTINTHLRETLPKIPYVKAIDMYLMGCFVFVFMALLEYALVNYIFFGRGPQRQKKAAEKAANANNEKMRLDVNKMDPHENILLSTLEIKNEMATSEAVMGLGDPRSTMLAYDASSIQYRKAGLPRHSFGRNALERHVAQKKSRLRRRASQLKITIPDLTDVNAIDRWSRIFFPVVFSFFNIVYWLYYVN

For `O=C1O[C@H]([C@@H](O)CO)C(O)=C1O` [Asc, Ascorbic acid], the “% Potentiation” value in assay [1] (positive allosteric modulator) is reported as 139.5 ± 87.5%. Besides, the “% potentiation at 10 mM” value on α1β2 GABAA receptor was ~ 600%.
As for `O=C1O[C@H]([C@H](O)CO)C(O)=C1O` [D-isoAsc, D-isoascorbic acid], the “% Potentiation” value in assay [1] (positive allosteric modulator) amounted to 33.5 ± 12.5%.
For the compound `O=C1O[C@H]([C@@H](O)CO)C(=O)C1=O` [DHA, L-dehydroascorbic acid], in assay [1], the “% Potentiation” value was -1.6 ± 4.2%.
